Reference: PubChem BioAssay AID1845199 (Molecular Pharmacology Branch, DTP, NCI, 2023)

Tested on: 556581-035-R-J1 tumor spheroid viability, % test/control
Experiment: Anticancer human tumor 556581-035-R-J1 patient-derived ovarian carcinoma cell line growth inhibition
Conditions: spheroids with HUVEC and MSC; for IC50: curve of first compound; for viability, T/C: stronger effect = lower value; active = viability on the fitted dose curve at most 10% of control; inactive = the rest
Procedure, shortened: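 Single agents and combinations were tested on spheroids built from tumor cells plus HUVEC and hMSC, at half-log dilutions starting at or near clinical Cmax, else 10 microM; final DMSO 0.25% (v/v).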
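Note: spheroids exposed to compounds for 7 days before viability read.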

O=C(c1cc(Cc2n[nH]c(=O)c3ccccc23)ccc1F)N1CCN(C(=O)C2CC2)CC1 + CC[C@@]1(O)C(=O)OCc2c1cc1n(c2=O)Cc2cc3c(CN(C)C)c(O)ccc3nc2-1
< 0.0949 µM: IC50 (second compound 0.3 µM)
> 30 µM: IC50 (second compound 0.003 µM) | IC50 (second compound 0.00949 µM) | IC50 (second compound 0.03 µM)
6.48 µM: IC50 (second compound 0.0949 µM)
inactive: viability, T/C (second compound 0.003 µM, first compound 0.0949 µM) 103% | viability, T/C (second compound 0.003 µM, first compound 0.3 µM) 104% | viability, T/C (second compound 0.003 µM, first compound 0.949 µM) 103% | viability, T/C (second compound 0.003 µM, first compound 3 µM) 95.4% | viability, T/C (second compound 0.003 µM, first compound 9.49 µM) 83.3% | viability, T/C (second compound 0.003 µM, first compound 30 µM) 68.5% | viability, T/C (second compound 0.00949 µM, first compound 0.0949 µM) 93% | viability, T/C (second compound 0.00949 µM, first compound 0.3 µM) 95.8% | viability, T/C (second compound 0.00949 µM, first compound 0.949 µM) 92.7% | viability, T/C (second compound 0.00949 µM, first compound 3 µM) 86.9% | viability, T/C (second compound 0.00949 µM, first compound 9.49 µM) 77.7% | viability, T/C (second compound 0.00949 µM, first compound 30 µM) 68% | viability, T/C (second compound 0.03 µM, first compound 0.0949 µM) 74.8% | viability, T/C (second compound 0.03 µM, first compound 0.3 µM) 77.9% | viability, T/C (second compound 0.03 µM, first compound 0.949 µM) 75.7% | viability, T/C (second compound 0.03 µM, first compound 3 µM) 72.9% | viability, T/C (second compound 0.03 µM, first compound 9.49 µM) 63.7% | viability, T/C (second compound 0.03 µM, first compound 30 µM) 55.1% | viability, T/C (second compound 0.0949 µM, first compound 0.0949 µM) 57.2% | viability, T/C (second compound 0.0949 µM, first compound 0.3 µM) 58.2% | viability, T/C (second compound 0.0949 µM, first compound 0.949 µM) 58.3% | viability, T/C (second compound 0.0949 µM, first compound 3 µM) 53.4% | viability, T/C (second compound 0.0949 µM, first compound 9.49 µM) 47.2% | viability, T/C (second compound 0.0949 µM, first compound 30 µM) 38.6% | viability, T/C (second compound 0.3 µM, first compound 0.0949 µM) 16.4% | viability, T/C (second compound 0.3 µM, first compound 0.3 µM) 17.7% | viability, T/C (second compound 0.3 µM, first compound 0.949 µM) 15% | viability, T/C (second compound 0.3 µM, first compound 3 µM) 14.6% | viability, T/C (second compound 0.3 µM, first compound 9.49 µM) 12.4% | viability, T/C (second compound 0.3 µM, first compound 30 µM) 12.9%
